# Experimental data: patent US20080293038A1, “Method for Determining Resistance of Hiv to Nucleoside Reverse Transcriptase Inhibitor Treatment” (priority 2005, published 2008)
# Read-outs that look alike come from different tables or passages of the source.
# Tested on: HIV-1 isolates from patient plasma samples (recombinant virus with patient PR-RT segment)
# Procedure: Phenotypic drug susceptibility is measured as the concentration of drug required to inhibit virus replication by 50% (IC50). As used herein, a “fold change” or “FC” is the ratio of a viral variant IC50 divided by the IC50 of a reference HIV.
# The clinical cutoff has been identified as a 3.5-fold change (“FC”) for the PHENOSENSE™ phenotypic HIV assay for FTC.
# A set of reverse transcriptase mutations for FTC was generated utilizing the HIPAA-compliant database of over 48,000 linked phenotype and genotype results for patient's samples maintained by ViroLogic, Inc. (South San Francisco, Calif.). Phenotypes and genotypes were determined in the ViroLogic clinical laboratory. […] In this subset excluding the wild-type samples, a total of 13,576 samples had IC50 fold change (FC) data available for FTC.
# The drug susceptibility phenotypes of the HIV-1 isolates from patient plasma samples was determined by the PHENOSENSE™ phenotype HIV assay. This assay was performed by amplifying the PR-RT segment of the pol gene from patient plasma and inserting it into a genomic HIV-1 vector. The vector contained a luciferase reporter gene to monitor recombinant virus infection in cell culture. Results were expressed as the FC in the IC50 for the patient-derived virus compared to that for a reference control virus, NL4-3. Drug dilutions were arranged to maximize curve-fitting accuracy for the range of wildtype virus susceptibilities over clinically relevant ranges of increased and decreased susceptibilities. Microtiter plates were incubated in customized incubators in which the temperature, CO2 level, and humidity were controlled to minimize variation in cell growth and medium composition changes throughout the plate.
# The five rules were tested separately and with the condition that none of the other rules were verified as true, except for rule 2. […] In this exercise, because of large number of samples in each category, mixtures (if present at accessory positions) were considered as mutant. In rule 2, because of the low number of samples with T69 insertion without NAMs, the condition was defined to select samples with T69 insertion and with no mutation Q151M, K65R, M184I, M184V or M184T.
compound,measurement,setting,value
"Nc1nc(=O)n([C@@H]2CS[C@H](CO)O2)cc1F [FTC, emtricitabine]",samples classified as phenotypically resistant,"dataset of 13,576 patient samples (wild-type excluded) with FTC FC data, 8,589 samples resistant",63.2%
same,PR % (samples phenotypically resistant to FTC),"rule 1: samples with RT mutation Q151M only, PR = FC at or above clinical cutoff 3.5 vs NL4-3",53.8%
same,PR % (samples phenotypically resistant to FTC),"rule 2: samples with T69 insertion (possible NAMs), no Q151M, K65R, M184I/V/T, cutoff FC 3.5",89.4%
same,PR % (samples phenotypically resistant to FTC),"rule 3: samples with RT mutation K65R only, cutoff FC 3.5",95.2%
same,PR % (samples phenotypically resistant to FTC),"rule 4: samples with M184I, V or T only, cutoff FC 3.5",100%
same,PR % (samples phenotypically resistant to FTC),"rule 5: samples with 4 or more NAMs (M41L, E44A/D, D67N, K70R, V118I, L210W, T215F/Y, K219E/H/N/Q/R) only, cutoff FC 3.5",87.1%
same,PR % (samples phenotypically resistant to FTC),"totals: all 2794 samples meeting only one of the five rules, cutoff FC 3.5",94.9%
